Test system: porcine skin stratum corneum
Assay: porcine skin stratum corneum evaluation (exfoliation evaluation)
Assay type: cell-based, pig
Settings: 6 mm porcine skin sample, 100 ul sample, 37° C. and 50% humidity for a day; result in words (values only in figures)
Protocol: For the porcine skin stratum corneum evaluation of the present disclosure, the exfoliation evaluation method mentioned in Journal of the European Academy of Dermatology and Venereology, 2014, 28, 415-423 was modified and used. Specifically, a sample of 6 mm diameter from 1 mm thick skin of a pig, and the like, was taken with a biopsy tool, and it was placed in a 96-well plate, and after washing it with phosphate buffered saline (PBS) once, 100 ul of the sample to be tested was added. The present sample was stored under the conditions of 37° C. and 50% humidity for a day, and then the number of exfoliated stratum corneum was measured with a cell counter and a sample containing only water was plotted as a negative control group and 10% gluconolactone […] was plotted as a positive control group. The result was shown in the fold increase compared to the value of the result of gluconolactone 10% pH 6 for relative comparison.

NC(=O)NC1NC(=O)NC1=O (stereo not shown) [allantoin]
exfoliation ability (number of exfoliated stratum corneum, fold increase compared to gluconolactone 10% pH 6): did not have high efficacy when used alone
